Measured values taken from PubChem BioAssay (NCI).
Where “and” joins values, the source holds several entries; their conditions need not be identical. Equal entries are not always repeated.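 96-well plates; 48 h exposure; 5 concentrations. Endpoints by linear interpolation between flanking doses. Not reached: highest tested concentration assigned. GI50: concentration for 50% inhibition of growth. TGI marks complete inhibition of growth.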

Assays:
Assay in all cases: NCI anticancer screen, dose series, 48 h
HS 578T breast = system: HS 578T breast
OVCAR-8 ovarian = system: OVCAR-8 ovarian
SK-MEL-5 melanoma = system: SK-MEL-5 melanoma
HCC-2998 colon = system: HCC-2998 colon
K-562 leukemia = system: K-562 leukemia
UACC-257 melanoma = system: UACC-257 melanoma
SR leukemia = system: SR leukemia
786-0 renal = system: 786-0 renal
SW-620 colon = system: SW-620 colon
CCRF-CEM leukemia = system: CCRF-CEM leukemia

CC1C(c2ccc3c(c2)OCO3)c2cc3c(cc2OC1N1CCCCC1)OCO3 (stereo not drawn)
TGI (HS 578T breast): > 100 µM
TGI (OVCAR-8 ovarian): > 100 µM
TGI (SK-MEL-5 melanoma): > 100 µM
TGI (HCC-2998 colon): > 100 µM
TGI (K-562 leukemia): > 100 µM
TGI (UACC-257 melanoma): > 100 µM
TGI (SR leukemia): > 100 µM
TGI (786-0 renal): > 100 µM
TGI (SW-620 colon): > 100 µM
TGI (CCRF-CEM leukemia): > 100 µM

Cc1ccc(O)c(-c2csc(NCN3CCN(CNc4nc(-c5cc(C)ccc5O)cs4)CC3)n2)c1
TGI (HS 578T breast): > 100 µM
TGI (OVCAR-8 ovarian): > 100 µM
TGI (SK-MEL-5 melanoma): > 100 µM
TGI (HCC-2998 colon): > 100 µM
TGI (K-562 leukemia): > 100 µM
TGI (UACC-257 melanoma): > 100 µM
TGI (SR leukemia): > 100 µM
TGI (786-0 renal): > 100 µM
TGI (SW-620 colon): > 100 µM
TGI (CCRF-CEM leukemia): > 100 µM

CCOC(=O)COc1c(OC)cc(C2C3=C(COC3=O)Oc3cc4c(cc32)OCO4)cc1OC (stereo not drawn)
TGI (HS 578T breast): > 57.1 µM
TGI (OVCAR-8 ovarian): 47 µM
TGI (SK-MEL-5 melanoma): 13.8 µM
TGI (HCC-2998 colon): 30.7 µM
TGI (K-562 leukemia): 12.2 µM
TGI (UACC-257 melanoma): > 100 µM
TGI (SR leukemia): 27.1 µM
TGI (786-0 renal): 15.5 µM
TGI (SW-620 colon): > 65.9 µM
TGI (CCRF-CEM leukemia): 0.965 µM

O=C1C=C(N2CC2)C(=O)C=C1N1CC1
TGI (HS 578T breast): 8.14 µM
TGI (OVCAR-8 ovarian): 4.31 µM
GI50 (SK-MEL-5 melanoma): 0.0155 µM
TGI (SK-MEL-5 melanoma): 0.072 µM and 0.307 µM
GI50 (HCC-2998 colon): 0.0234 µM
TGI (HCC-2998 colon): 0.15 µM and 0.739 µM
GI50 (K-562 leukemia): 0.246 µM
TGI (K-562 leukemia): 2.94 µM
GI50 (UACC-257 melanoma): 0.121 µM
TGI (UACC-257 melanoma): 0.339 µM and 0.999 µM
GI50 (SR leukemia): 0.0266 µM
TGI (SR leukemia): 0.302 µM
GI50 (SW-620 colon): 0.0147 µM
TGI (SW-620 colon): 0.848 µM
GI50 (CCRF-CEM leukemia): 0.00568 µM
TGI (CCRF-CEM leukemia): 0.456 µM

CC(C)(C)OC(=O)NC(Cc1ccc(OCc2ccccc2)cn1)C(=O)N1CCSCC1 (stereo not drawn)
TGI (HS 578T breast): > 100 µM
TGI (OVCAR-8 ovarian): > 100 µM
TGI (SK-MEL-5 melanoma): 29.9 µM
TGI (HCC-2998 colon): > 100 µM
TGI (K-562 leukemia): > 100 µM
TGI (UACC-257 melanoma): 82.5 µM
TGI (SR leukemia): 75.3 µM
TGI (786-0 renal): > 100 µM
TGI (SW-620 colon): > 100 µM
TGI (CCRF-CEM leukemia): > 100 µM

Cc1ccc(S(=O)(=O)/N=C(\[O-])C2=C(c3ccccc3)NN(C)c3nc4cccc[n+]4nc32)cc1
TGI (HS 578T breast): > 100 µM
TGI (OVCAR-8 ovarian): > 100 µM
TGI (SK-MEL-5 melanoma): > 100 µM
TGI (HCC-2998 colon): > 100 µM
TGI (K-562 leukemia): > 100 µM
TGI (UACC-257 melanoma): > 100 µM
TGI (SR leukemia): > 100 µM
TGI (786-0 renal): > 100 µM
TGI (SW-620 colon): > 100 µM
TGI (CCRF-CEM leukemia): > 100 µM

CCOC(=O)/C=C(\N=P(c1ccccc1)(c1ccccc1)c1ccccc1)C(F)(F)C(F)(F)C(F)(F)C(F)(F)C(F)(F)F
TGI (HS 578T breast): > 100 µM
TGI (SK-MEL-5 melanoma): > 100 µM
TGI (HCC-2998 colon): > 100 µM
TGI (K-562 leukemia): > 100 µM
TGI (UACC-257 melanoma): > 100 µM
TGI (SR leukemia): > 100 µM
TGI (786-0 renal): > 100 µM
TGI (SW-620 colon): > 100 µM
TGI (CCRF-CEM leukemia): > 100 µM

COc1cccc2c1C(=O)c1c(O)c3c(c(O)c1C2=O)C[C@@](O)(/C(C)=N/NC(=O)c1ccccc1)C[C@@H]3OC1CC(N)C(O)C(C)O1 (stereo partly drawn)
TGI (HS 578T breast): 1.82 µM
TGI (OVCAR-8 ovarian): 5.96 µM
TGI (SK-MEL-5 melanoma): 0.74 µM
TGI (HCC-2998 colon): 2.02 µM
TGI (K-562 leukemia): 4.25 µM
TGI (UACC-257 melanoma): 3.51 µM
TGI (SR leukemia): 0.845 µM
TGI (786-0 renal): 0.744 µM
TGI (SW-620 colon): 4.89 µM
TGI (CCRF-CEM leukemia): 3.19 µM

COC(OC)(c1ccccc1)C(I)I
TGI (HS 578T breast): 62.4 µM
TGI (OVCAR-8 ovarian): 35.1 µM
TGI (SK-MEL-5 melanoma): 21.9 µM
TGI (HCC-2998 colon): > 58.3 µM
TGI (K-562 leukemia): > 35.4 µM
TGI (UACC-257 melanoma): 8.73 µM
TGI (SR leukemia): > 45.7 µM
TGI (786-0 renal): 21.5 µM
TGI (SW-620 colon): > 37.1 µM
TGI (CCRF-CEM leukemia): 22.7 µM

N#C[C@@]12CCCC(=O)[C@@H]1[C@H]1CCC[C@H]12
TGI (HS 578T breast): > 100 µM
TGI (OVCAR-8 ovarian): 47.5 µM
TGI (SK-MEL-5 melanoma): 30.8 µM
TGI (HCC-2998 colon): 31.7 µM
TGI (K-562 leukemia): 37.7 µM
TGI (UACC-257 melanoma): 36.2 µM
TGI (SR leukemia): 59.5 µM
TGI (786-0 renal): 29.4 µM
TGI (SW-620 colon): 45.2 µM
TGI (CCRF-CEM leukemia): 57.4 µM

COC1(OC)C2(Cl)C(Cl)=C(Cl)C1(Cl)C1COCC12 (stereo not drawn)
TGI (HS 578T breast): > 100 µM
TGI (OVCAR-8 ovarian): > 100 µM
TGI (SK-MEL-5 melanoma): > 100 µM
TGI (HCC-2998 colon): > 100 µM
TGI (K-562 leukemia): > 100 µM
TGI (UACC-257 melanoma): > 100 µM
TGI (SR leukemia): > 100 µM
TGI (786-0 renal): > 100 µM
TGI (SW-620 colon): > 100 µM
TGI (CCRF-CEM leukemia): > 100 µM

CC(=O)N1N=C(N)CC1=O
TGI (HS 578T breast): > 100 µM
TGI (OVCAR-8 ovarian): > 100 µM
TGI (SK-MEL-5 melanoma): > 100 µM
TGI (HCC-2998 colon): > 100 µM
TGI (K-562 leukemia): > 100 µM
TGI (UACC-257 melanoma): > 100 µM
TGI (SR leukemia): > 100 µM
TGI (786-0 renal): > 100 µM
TGI (SW-620 colon): > 100 µM
TGI (CCRF-CEM leukemia): > 100 µM

C/C(=N\O)c1cccc(Nc2nc3ccccc3c3occc23)c1
TGI (HS 578T breast): 32.8 µM
TGI (OVCAR-8 ovarian): 32.8 µM
TGI (SK-MEL-5 melanoma): 27 µM
TGI (HCC-2998 colon): 28.9 µM
TGI (K-562 leukemia): 70.5 µM
TGI (UACC-257 melanoma): 2.59 µM
TGI (SR leukemia): 35.1 µM
TGI (786-0 renal): 26.7 µM
TGI (CCRF-CEM leukemia): 31 µM

O=C(N/N=C\c1ccc([N+](=O)[O-])cc1)Nc1cccc2ccccc12
TGI (HS 578T breast): 32 µM
TGI (OVCAR-8 ovarian): 34.7 µM
TGI (SK-MEL-5 melanoma): > 100 µM
TGI (HCC-2998 colon): > 100 µM
TGI (K-562 leukemia): > 100 µM
TGI (UACC-257 melanoma): > 100 µM
TGI (SR leukemia): > 100 µM
TGI (786-0 renal): 29.1 µM
TGI (SW-620 colon): > 100 µM
TGI (CCRF-CEM leukemia): > 100 µM

Nn1c(SCC(=O)NCc2ccccc2)nc2ccccc2c1=O
TGI (HS 578T breast): > 100 µM
TGI (OVCAR-8 ovarian): > 100 µM
TGI (SK-MEL-5 melanoma): > 100 µM
TGI (HCC-2998 colon): > 100 µM
TGI (K-562 leukemia): > 100 µM
TGI (UACC-257 melanoma): > 100 µM
TGI (SR leukemia): 69 µM
TGI (786-0 renal): > 100 µM
TGI (SW-620 colon): > 100 µM
TGI (CCRF-CEM leukemia): > 100 µM

CSc1ccc(/C=C2\N=C(c3ccccc3)N(c3nc4c(Cl)cc(Cl)cc4s3)C2=O)cc1
TGI (HS 578T breast): 64.6 µM
TGI (OVCAR-8 ovarian): > 100 µM
TGI (SK-MEL-5 melanoma): 34.9 µM
TGI (HCC-2998 colon): 94 µM
TGI (K-562 leukemia): > 100 µM
TGI (UACC-257 melanoma): > 100 µM
TGI (SR leukemia): 50.3 µM
TGI (786-0 renal): > 100 µM
TGI (SW-620 colon): > 100 µM
TGI (CCRF-CEM leukemia): 43.3 µM

CC1(C)C(=O)C2(OS(=O)(=O)C(F)(F)F)CCC1C2 (stereo not drawn)
TGI (HS 578T breast): > 100 µM
TGI (OVCAR-8 ovarian): > 100 µM
TGI (SK-MEL-5 melanoma): > 100 µM
TGI (HCC-2998 colon): > 100 µM
TGI (K-562 leukemia): > 100 µM
TGI (UACC-257 melanoma): > 100 µM
TGI (SR leukemia): > 100 µM
TGI (786-0 renal): > 100 µM
TGI (SW-620 colon): > 100 µM
TGI (CCRF-CEM leukemia): > 100 µM

Cc1ccc(Nc2nc(=O)[nH]c(=O)[nH]2)cc1N=[N+]=[N-]
TGI (HS 578T breast): > 100 µM
TGI (OVCAR-8 ovarian): > 100 µM
TGI (SK-MEL-5 melanoma): > 100 µM
TGI (HCC-2998 colon): > 100 µM
TGI (K-562 leukemia): > 100 µM
TGI (UACC-257 melanoma): > 100 µM
TGI (SR leukemia): > 100 µM
TGI (786-0 renal): > 100 µM
TGI (SW-620 colon): > 100 µM
TGI (CCRF-CEM leukemia): > 100 µM

Nc1nc(N)c2nnn(C[C@H]3CC[C@@H](CO)C3)c2n1
TGI (HS 578T breast): > 100 µM
TGI (OVCAR-8 ovarian): > 100 µM
TGI (HCC-2998 colon): > 100 µM
TGI (K-562 leukemia): > 100 µM
TGI (UACC-257 melanoma): > 100 µM
TGI (SR leukemia): > 100 µM
TGI (786-0 renal): > 100 µM
TGI (SW-620 colon): > 100 µM
TGI (CCRF-CEM leukemia): > 100 µM

CCOC(=O)C(C)(C)/C=C\C(Cl)=C(Cl)Cl
TGI (HS 578T breast): > 100 µM
TGI (OVCAR-8 ovarian): > 100 µM
TGI (SK-MEL-5 melanoma): > 100 µM
TGI (HCC-2998 colon): > 100 µM
TGI (K-562 leukemia): > 100 µM
TGI (UACC-257 melanoma): > 100 µM
TGI (SR leukemia): > 100 µM
TGI (786-0 renal): > 100 µM
TGI (SW-620 colon): > 100 µM
TGI (CCRF-CEM leukemia): > 100 µM
